For data set [1], the system named is Phospholipidosis. Description: Phospholipidosis-positive literature compound observed in human. In kind it is ADME.
The subject of data set [2] is Phospholipidosis. As to conditions: rat.
The subject of data set [3] is Phospholipidosis. Description: Phospholipidosis-positive literature compound observed in rabbit. In kind it is ADME, Oryctolagus cuniculus.
For data set [4], the system named is Phospholipidosis. Description: Phospholipidosis-positive literature compound observed in mouse. It is filed as ADME, organism-based. As to conditions: in vivo.
Data set [5] concerns Phospholipidosis. Description: Phospholipidosis-positive literature compound observed in Rhesus monkey. In kind it is ADME, Macaca mulatta.
The test system of data set [6] is Phospholipidosis. Description: Phospholipidosis-positive literature compound observed in dog. It is filed as ADME, Canis lupus familiaris.
Data set [7] concerns Phospholipidosis. Description: Phospholipidosis-positive literature compound observed in hamster. As to conditions: cricetinae.
For data set [8], the system named is Phospholipidosis. In words: Phospholipidosis-positive literature compound observed in monkey. It is filed as ADME. To be noted: cercopithecidae.
In data set [9] the test system is Phospholipidosis. In words: Phospholipidosis-positive literature compound observed in guinea pig. It is filed as ADME, Cavia porcellus.

Regarding `CCN(CC)Cc1cc(Nc2ccnc3cc(Cl)ccc23)ccc1O.Cl`, the Phospholipidosis entry in data set [1] is on record as “Active”.

Regarding `Clc1ccccc1CNC[C@H]1CC[C@H](CNCc2ccccc2Cl)CC1`, the Phospholipidosis result in data set [2], in data set [3] and in [4] was “Active” each time. Regarding `C[n+]1ccc(-c2cc[n+](C)cc2)cc1`, the Phospholipidosis result in [4] is given as “Active”. `CCCCc1oc2ccccc2c1C(=O)c1cc(I)c(OCCN(CC)CC)c(I)c1` [AMIODARONE]: the Phospholipidosis result in data set [2] and in data set [1] was “Active” throughout. For `CN(C)CCCN(C)[C@H]1CC[C@H]2[C@@H]3CC=C4C[C@@H](O)CC[C@]4(C)[C@H]3CC[C@]12C` [AZACOSTEROL], the Phospholipidosis entry in data set [4] is reported as “Active”. For `CCN(CC)CCCC(C)Nc1ccnc2cc(Cl)ccc12` (stereo unspecified) [CHLOROQUINE], the Phospholipidosis entry in data set [2], in data set [1], in data set [5], in data set [4] and in data set [6] was “Active” each time.

`CC(C)(N)Cc1ccc(Cl)cc1` [CHLORPHENTERMINE]: the Phospholipidosis entry in data set [2], in [3], in data set [4] and in data set [6] was “Active” throughout. Regarding `CN(C)CCCN1c2ccccc2Sc2ccc(Cl)cc21` [CHLORPROMAZINE], the Phospholipidosis result in [2] and in data set [6] was “Active” in each case.

Consider `CCC[C@@H]1C[C@@H](C(=O)N[C@@H]([C@H]2O[C@H](SC)[C@H](O)[C@@H](O)[C@H]2O)[C@H](C)Cl)N(C)C1` [CLINDAMYCIN], for which the Phospholipidosis entry in data set [2] and in data set [6] was “Active” each time. Take `CN1CCN(C2=Nc3cc(Cl)ccc3Nc3ccccc32)CC1` [CLOZAPINE]: in [2], the Phospholipidosis result is “Active”.

Consider `CCC(c1ccc(OCCN(CC)CC)cc1)C(CC)c1ccc(OCCN(CC)CC)cc1` (stereo unspecified) [CORALGIL], for which the Phospholipidosis entry in [2], in data set [1], in [3], in [4], in data set [6] and in [7] was “Active” in each case. With `CN1CCN(C(c2ccccc2)c2ccccc2)CC1` [CYCLIZINE], in [2], the Phospholipidosis entry is on record as “Active”. Consider `NC[C@@H]1CC[C@@H](N)[C@@H](O[C@H]2[C@H](O)[C@@H](O[C@H]3O[C@H](CO)[C@@H](O)[C@H](N)[C@H]3O)[C@H](N)C[C@@H]2N)O1` [DIBEKACIN], for which the Phospholipidosis result in data set [2] was “Active”. For the compound `CC(C)N(CCC(CCN1CCCCC1)(C(N)=O)c1ccccc1Cl)C(C)C` (stereo unspecified) [DISOBUTAMIDE], the Phospholipidosis entry in [2], in data set [8] and in [6] was “Active” in each case.

Turning to `CC[C@H]1CN2CCc3cc(OC)c(OC)cc3[C@@H]2C[C@@H]1C[C@H]1NCCc2cc(OC)c(OC)cc21` [EMETINE], the Phospholipidosis entry in data set [2] is on record as “Active”.

For the compound `CC[C@H]1OC(=O)[C@H](C)[C@@H](O[C@H]2C[C@@](C)(OC)[C@@H](O)[C@H](C)O2)[C@H](C)[C@@H](O[C@@H]2O[C@H](C)C[C@H](N(C)C)[C@H]2O)[C@](C)(O)C[C@@H](C)C(=O)[C@H](C)[C@@H](O)[C@]1(C)O` [ERYTHROMYCIN], the Phospholipidosis result in data set [2] and in data set [6] was “Active” each time. For the compound `CCOC(=O)C1N=C(c2ccccc2F)c2cc(Cl)ccc2NC1=O` (stereo unspecified) [ETHYL LOFLAZEPATE], the Phospholipidosis entry in data set [2] is given as “Active”.

For `CCNC(C)Cc1cccc(C(F)(F)F)c1` (stereo unspecified) [FENFLURAMINE], the Phospholipidosis result in data set [2], in data set [6] and in [9] was “Active” throughout. With `CN1CCCN(C(c2ccccc2)c2ccc(Cl)cc2)CC1` (stereo unspecified) [HOMOCHLORCYCLIZINE], the Phospholipidosis entry in data set [2] is “Active”. Turning to `OCCOCCN1CCN(C(c2ccccc2)c2ccc(Cl)cc2)CC1` (stereo unspecified) [HYDROXYZINE], the Phospholipidosis result in [2] is “Active”. In the case of `CN(C)CCCN1c2ccccc2CCc2ccccc21` [IMIPRAMINE], the Phospholipidosis result in data set [2] is recorded as “Active”. Take `O=C(NC1CCN(CCc2c[nH]c3ccccc23)CC1)c1ccccc1` [INDORAMIN]: in [2], the Phospholipidosis entry is “Active”.

Turning to `CN(C)CCCn1c2c(c3ccccc31)CCCCCC2` [IPRINDOLE], the Phospholipidosis result in [2] is given as “Active”. For the compound `CC(=O)N1CCN(c2ccc(OCC3COC(Cn4ccnc4)(c4ccc(Cl)cc4Cl)O3)cc2)CC1` (stereo unspecified) [KETOCONAZOLE], the Phospholipidosis entry in data set [4] is “Active”.

For the compound `CNCCCC12CCC(c3ccccc31)c1ccccc12` [MAPROTILINE], the Phospholipidosis entry in data set [2] is on record as “Active”. As to `Cc1cccc(CN2CCN(C(c3ccccc3)c3ccc(Cl)cc3)CC2)c1` (stereo unspecified) [MECLIZINE], the Phospholipidosis entry in data set [2] is “Active”. Consider `CCN[C@@H]1C[C@H](N)[C@@H](O[C@H]2OC(CN)=CC[C@H]2N)[C@H](O)[C@H]1O[C@H]1OC[C@](C)(O)[C@H](NC)[C@H]1O` [NETILMICIN], for which the Phospholipidosis entry in data set [2] is “Active”. `Clc1ccc(C(c2ccccc2)N2CCNCC2)cc1` (stereo unspecified) [NORCHLORCYCLIZINE]: the Phospholipidosis entry in data set [2] is “Active”.

As to `NCCc1cc(O)c(O)cc1O` [OXIDOPAMINE], the Phospholipidosis entry in data set [2] is given as “Active”. As to `C1CCC(C(CC2CCCCN2)C2CCCCC2)CC1` (stereo unspecified) [PERHEXILINE], the Phospholipidosis result in data set [2], in [1] and in [4] was “Active” in each case. In the case of `CCOc1ccc(NC(C)=O)cc1` [PHENACETIN], in [2], the Phospholipidosis result is “Active”.

On to `CCN(CC)CCCC(C)Nc1c2ccc(Cl)cc2nc2ccc(OC)cc12` (stereo unspecified) [QUINACRINE], for which the Phospholipidosis entry in data set [2] is on record as “Active”.

On to `N=C(N)c1ccc(/C=C/c2ccc(C(=N)N)cc2)cc1` [STILBAMIDINE], for which the Phospholipidosis result in [1] is recorded as “Active”. On to `Cc1ccc(C(=O)Nc2ccc(S(=O)(=O)O)c3cc(S(=O)(=O)O)cc(S(=O)(=O)O)c23)cc1NC(=O)c1cccc(NC(=O)Nc2cccc(C(=O)Nc3cc(C(=O)Nc4ccc(S(=O)(=O)O)c5cc(S(=O)(=O)O)cc(S(=O)(=O)O)c45)ccc3C)c2)c1` [SURAMIN], for which, in [2], the Phospholipidosis entry is “Active”. Still for that read-out and setting: for `CC/C(=C(\c1ccccc1)c1ccc(OCCN(C)C)cc1)c1ccccc1` [TAMOXIFEN] the value was “Active”. With `CCN(CC)CCOc1ccc2c(c1)C(=O)c1cc(OCCN(CC)CC)ccc1-2` [TILORONE], the Phospholipidosis result in [2] and in data set [1] was “Active” throughout. Turning to `NC[C@H]1O[C@H](O[C@H]2[C@H](O)[C@@H](O[C@H]3O[C@H](CO)[C@@H](O)[C@H](N)[C@H]3O)[C@H](N)C[C@@H]2N)[C@H](N)C[C@@H]1O` [TOBRAMYCIN], the Phospholipidosis entry in data set [2] and in [1] was “Active” each time. In the case of `CCN(CC)CCOc1ccc(C(O)(Cc2ccc(Cl)cc2)c2ccc(C)cc2)cc1` (stereo unspecified) [TRIPARANOL], the Phospholipidosis result in data set [2], in [4] and in [7] was “Active” in each case. Regarding `CN(C)C/C=C(/c1ccc(Br)cc1)c1cccnc1` [ZIMELDINE], the Phospholipidosis result in data set [2] and in [6] was “Active” each time.

Regarding GENTAMICIN, the Phospholipidosis entry in data set [2], in data set [1] and in data set [6] was “Active” each time.

These data come from ChEMBL document CHEMBL1615345, “Evaluation of a published in silico model and construction of a novel Bayesian model for predicting phospholipidosis inducing potential” (J Chem Inf Model, 2007).
